{
  "source": "paper PMC9563204",
  "about": "“Mass Spectrometry and Machine Learning Reveal Determinants of Client Recognition by Antiamyloid Chaperones” (Molecular & Cellular Proteomics : MCP, 2022)",
  "molecular_target": "TTR (transthyretin) (Homo sapiens, UniProt P02766)",
  "assay": "native MS of Aβ([…]) binding to TTR with and without tafamidis",
  "conditions": "TTR tetramer coincubated with Aβ(12–28) and tafamidis, overnight, room temperature; indirect read-out (tetramer stabilization)",
  "data": [
    {"smiles": "O=C(O)c1ccc2nc(-c3cc(Cl)cc(Cl)c3)oc2c1", "note": "[tafamidis]", "values": [
      {"measurement": "native MS of Aβ(12-28) binding to TTR with and without tafamidis", "result": "In the presence of tafamidis, we observed a clear decrease in Aβ binding to TTR"}
    ]}
  ]
}
